Experimental data published in PubChem BioAssay (NCI).
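Five compound concentrations were applied to cells in 96-well plates for 48 hours; endpoints were derived by simple linear interpolation of the resulting dose-response curve. At the GI50, growth is halved. TGI: concentration producing complete growth inhibition.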

What was measured:
Assay in all cases: NCI anticancer screen, dose series, 48 h
OVCAR-8 ovarian = test system: OVCAR-8 ovarian
K-562 leukemia = test system: K-562 leukemia
NCI/ADR-RES ovarian = test system: NCI/ADR-RES ovarian
HT29 colon = test system: HT29 colon
SK-MEL-5 melanoma = test system: SK-MEL-5 melanoma
HL-60(TB) leukemia = test system: HL-60(TB) leukemia
SK-OV-3 ovarian = test system: SK-OV-3 ovarian
UO-31 renal = test system: UO-31 renal
SF-295 CNS = test system: SF-295 CNS
MALME-3M melanoma = test system: MALME-3M melanoma
SW-620 colon = test system: SW-620 colon
T-47D breast = test system: T-47D breast
A498 renal = test system: A498 renal
HCT-15 colon = test system: HCT-15 colon
CCRF-CEM leukemia = test system: CCRF-CEM leukemia
MDA-MB-435 = test system: MDA-MB-435
OVCAR-3 ovarian = test system: OVCAR-3 ovarian
HS 578T breast = test system: HS 578T breast
COLO 205 colon = test system: COLO 205 colon
SNB-75 CNS = test system: SNB-75 CNS
NCI-H522 lung = test system: NCI-H522 lung
UACC-257 melanoma = test system: UACC-257 melanoma
BT-549 breast = test system: BT-549 breast
KM12 colon = test system: KM12 colon
LOX IMVI melanoma = test system: LOX IMVI melanoma
U251 CNS = test system: U251 CNS
SK-MEL-2 melanoma = test system: SK-MEL-2 melanoma
DU-145 prostate = test system: DU-145 prostate

O=C1C(Br)=CC2C1C1C3CCC3C2(Br)C12OCCO2 (stereo not given)
GI50 (OVCAR-8 ovarian): 2.8 µM
TGI (OVCAR-8 ovarian): 12.3 µM
GI50 (K-562 leukemia): 2.98 µM
TGI (K-562 leukemia): 13 µM
GI50 (NCI/ADR-RES ovarian): 4.84 µM
TGI (NCI/ADR-RES ovarian): 41 µM
GI50 (HT29 colon): 2.75 µM
TGI (HT29 colon): 10.3 µM
GI50 (SK-MEL-5 melanoma): 3.19 µM
TGI (SK-MEL-5 melanoma): 14.4 µM
GI50 (HL-60(TB) leukemia): 2.2 µM
TGI (HL-60(TB) leukemia): 5.66 µM
GI50 (SK-OV-3 ovarian): 4.3 µM
TGI (SK-OV-3 ovarian): 15.3 µM
GI50 (UO-31 renal): 3.4 µM
TGI (UO-31 renal): 13.4 µM
GI50 (SF-295 CNS): 9.69 µM
TGI (SF-295 CNS): 27.5 µM
GI50 (MALME-3M melanoma): 4.45 µM
TGI (MALME-3M melanoma): 21.3 µM
GI50 (SW-620 colon): 3.12 µM
TGI (SW-620 colon): 11.6 µM
GI50 (T-47D breast): 2.48 µM
TGI (T-47D breast): 12.9 µM
GI50 (A498 renal): 2.99 µM
TGI (A498 renal): 11.4 µM
GI50 (HCT-15 colon): 1.22 µM
TGI (HCT-15 colon): 3.49 µM
GI50 (CCRF-CEM leukemia): 1.82 µM
TGI (CCRF-CEM leukemia): 10.5 µM
GI50 (MDA-MB-435): 2.93 µM
TGI (MDA-MB-435): 13.4 µM
GI50 (OVCAR-3 ovarian): 3.24 µM
TGI (OVCAR-3 ovarian): 9.88 µM
GI50 (HS 578T breast): 3.46 µM
TGI (HS 578T breast): 71 µM
GI50 (COLO 205 colon): 3.35 µM
TGI (COLO 205 colon): 10.9 µM
GI50 (SNB-75 CNS): 3.42 µM
TGI (SNB-75 CNS): 34.7 µM
GI50 (NCI-H522 lung): 1.82 µM
TGI (NCI-H522 lung): 4.73 µM
GI50 (UACC-257 melanoma): 2.14 µM
TGI (UACC-257 melanoma): 12.5 µM
GI50 (BT-549 breast): 5.03 µM
TGI (BT-549 breast): 18.1 µM
GI50 (KM12 colon): 2.39 µM
TGI (KM12 colon): 8.4 µM
GI50 (LOX IMVI melanoma): 1.21 µM
TGI (LOX IMVI melanoma): 3.74 µM
GI50 (U251 CNS): 2.88 µM
TGI (U251 CNS): 13 µM
GI50 (SK-MEL-2 melanoma): 3.17 µM
TGI (SK-MEL-2 melanoma): 9.09 µM
GI50 (DU-145 prostate): 3.22 µM
